Assay results as given in patent publication US20050203189A1, “Remedies for chronic kidney diseases” (priority 2002, published 2005).
pIC50: −log10 of the molar value.

Key:
[1] = target: T1, Rat renal cortex-derived BLMVs Na+/Ca2+ exchanger (Rattus norvegicus, UniProt Q01728); experiment: Rat renal cortex-derived BLMV Na+/Ca2+ exchange activity, Na-dependent 45Ca uptake; type: biochemical; conditions: for pIC50: rat renal cortex BLMVs, read-out: Inhibitory activity against Na+/Ca2+ exchange (Na-dependent 45Ca uptake), IC50 value, Renal cortex
T1 construct: BLMVs were prepared from rat renal cortex; from tissue; host or cells: rat renal cortex basolateral membrane vesicles
Method: Preparation of Rat Renal Cortex-Derived BLMVs (Basolateral Membrane Vesicles) and Method of Measuring for their Na^+/Ca^2+ Exchange Activity
BLMVs were prepared from rat renal cortex and assayed for Na^+/Ca^2+ exchange activity according to the procedures described in Am. J. Physiol., vol. 266, p. F785 (1994).
After being excised from rats, the kidneys were placed in ice-cold sucrose buffer ([…], 0.1 mM PMSF, 10 mM Tris-HCl (pH 7.6)) and decapsulated. The isolated cortex was then finely minced in the sucrose buffer and homogenized sequentially with a Dounce-type homogenizer and a Polytron-type homogenizer, followed by centrifugation at 2500 g for 15 minutes to collect the supernatant. Centrifugation was repeated at 24000 g for 20 minutes to collect the white fluffy portion of the pellet. After further addition of the sucrose buffer, the collected fraction was homogenized with a Dounce-type homogenizer, supplemented with Percoll and then centrifuged at 30000 g for 35 minutes to collect the middle layer. After addition of buffer (100 mM KCl, 100 mM mannitol, 5 mM HEPES-Tris (pH 7.4)), centrifugation was carried out at 34000 g for 30 minutes to collect the loose white pellet (BLMVs). The pellet was further suspended in the KCl-mannitol buffer and then centrifuged at 34000 g for 30 minutes to collect the precipitate, which was used for activity assay.
(Method of Measuring for Na^+/Ca^2+ Exchanger (Na-Dependent ^45Ca Uptake))
The BLMVs thus prepared were equilibrated at 37° C. for 10 minutes in pre-equilibration buffer (100 mM NaCl, 40 mM KCl, 1 mM MgSO4, 10 mM glucose, 5 mM HEPES-Tris (pH 7.4)) and then centrifuged at 20000 g for 5 minutes to collect the precipitate, which was then resuspended in the pre-equilibration buffer. Centrifugation was repeated to collect the precipitate, followed by resuspension in the pre-equilibration buffer. […] Subsequently, the filter was washed twice with 2 ml stop solution and then the amount of ^45Ca trapped inside the BLMVs was determined by using liquid scintillation method.

[2] = test system: Brain microsomal Na+/Ca2+ exchanger; experiment: Brain microsomal Na+/Ca2+ exchanger, Na-dependent 45Ca uptake; type: biochemical; conditions: rat brain microsomes; read-out: Inhibitory activity against Na+/Ca2+ exchange (Na-dependent 45Ca uptake), IC50 value, Brain
Method: Method of Measuring for Brain Microsomal Na^+/Ca^2+ Exchanger
Brain microsomes (1.5 mg/mil) obtained from 8-week-old rats were pre-treated with 160 mM NaCl-containing buffer to cause Na loading into membrane vesicles. This suspension was diluted 50-fold with 20 μM ^45CaCl2-containing buffer to induce ^45Ca uptake, followed by dilution with the buffer (0° C.) to stop the reaction. The membrane vesicles were immediately collected on a nitrocellulose filter. Subsequently, ^45Ca trapped inside the membrane vesicles was determined by liquid scintillation counting. The above assay for Na^+/Ca^2+ exchange activity in brain microsomes was performed according to the procedures described in J. Biol. Chem., vol. 257, p. 5111 (1982).

[3] = target: T2, Canine cardiac sarcolemmal vesicle Na+/Ca2+ exchanger (Canis lupus familiaris, UniProt P23685); experiment: Canine cardiac sarcolemmal vesicle Na+/Ca2+ exchanger, Na-dependent 45Ca uptake; type: biochemical; conditions: canine cardiac sarcolemmal vesicles; read-out: Inhibitory activity against Na+/Ca2+ exchange (Na-dependent 45Ca uptake), IC50 value, Cardiac sarcolemma
T2 construct: Canine cardiac sarcolemmal vesicles (0.5 mg/ml) were prepared by centrifugal fractionation; from tissue; host or cells: canine cardiac sarcolemmal vesicles
Method: Method of Measuring for Canine Cardiac Sarcolemmal Vesicle Na^+/Ca^2+ Exchanger
Canine cardiac sarcolemmal vesicles (0.5 mg/ml) were prepared by centrifugal fractionation as described in Methods enzymology, vol. 157, p. 85 (1988) and suspended in Solution A (20 mM MOPS-Tris (pH 7.4), 160 mM NaCl or KCl), followed by incubation at room temperature for about one hour to cause Na or K loading into the vesicles. This suspension was diluted 50-fold with 20 μM ^45CaCl2-containing buffer to induce ^45Ca uptake, followed by dilution with the buffer (0° C.) to stop the reaction. The membrane vesicles were immediately collected on a nitrocellulose filter. Subsequently, ^45Ca trapped inside the membrane vesicles was determined by liquid scintillation counting. The Na^+/Ca^2+ exchange activity was evaluated by subtracting the value obtained for K loading from the value obtained for Na loading. The above assay for Na^+/Ca^2+ exchange activity in canine cardiac sarcolemmal vesicles was performed according to the procedures described in J. Biol. Chem., vol. 257, p. 5111 (1982).

[4] = test system: Dahl-salt sensitive (Dahl-S) rats; experiment: Kidney protective activity in Dahl-salt sensitive rat; type: in vivo; conditions: 10 mg/kg orally twice a day, 6 weeks
Method: This test was conducted following the method described in J. Cardiovascular Pharmacology, Vol. 23, p. 970 (1994). Specifically, procedures are as follows.
Dahl-salt sensitive (Dahl-S) rats and Dahl-salt resistant (Dahl-R) rats as control animals (male, 7 weeks old) were used for the experiment. The rats were divided into 3 groups (6 individuals for each group) for the test. • Group I: Dahl-R+4% NaCl chow+solvent orally administered (twice a day) • Group II: Dahl-S+4% NaCl chow+solvent orally administered (twice a day) • Group III: Dahl-S+4% NaCl chow+SEA0400 10 mg/kg orally administered (twice a day)
Each animal was fed with a 4% NaCl high-salt-containing chow (whereas normal chow contains 0.6% NaCl) and water adlibitum. The solvent and SEA0400 were orally, administered twice a day (first time at 8:30 to 9:30 and second time at 16:30 to 17:30) for consecutive 6 weeks. In 6 weeks after the administration started, each of the rats was placed in a metabolic cage where urine was taken so that the amounts of protein and albumin in urine were measured to observe the effect on the kidney function. Determination of the amounts of protein and albumin in urine was performed following the method described in Bunseki Kagaku, Vol. 32, pp. E379-E386 (1983) and Hypertension, Vol. 40, No. 6, pp. 834-839 (2002) using an autoanalyzer (HITACHI Automatic Analyzer 7060).

ZSF-1 rats = experiment: Kidney protective activity in spontaneous diabetic rats (ZSF-1); type: in vivo, rat; conditions: for Amount of urinary albumin excretion / Amount of urinary protein excretion: ZSF-1 rats
Method: ZSF-1 rats and ZSF-1/lean rats which were control animals (8 weeks old) obtained from The Jackson Laboratory were used for this test. The rats were divided into 5 groups (8 individuals for each group) for the test. • Group I: ZSF-1/lean+solvent orally administered (twice a day) • Group II: ZSF-1+solvent orally administered (twice a day) • Group III: ZSF-1+SEA0400 1 mg/kg orally administered (twice a day) • Group IV: ZSF-1+SEA0400 3 mg/kg orally administered (twice a day) • Group V: ZSF-1+SEA0400 10 mg/kg orally administered (twice a day)
The solvent and SEA0400 were orally administered twice a day (first time at 8:30 to 10:30 and second time at 16:30 to 18:30) for consecutive 8 weeks. Eight weeks after the administration started, each of the rats was placed in a metabolic cage where urine was taken so that the amounts of protein and albumin in urine were measured to observe the effect oil the kidney function. Determination of the amounts of protein and albumin was performed following the description of the above-mentioned references using an autoanalyzer (HITACHI 7060 Automatic Analyzer).

N=C(N)SCCc1ccc(OCc2ccc([N+](=O)[O-])cc2)cc1 [K-BR7943, 2-[2-[4-[nitrobenzyloxy]phenyl]ethyl]isothio-ureamethanesulfonate, reference compound]
pIC50 [1]: 5.17 | pIC50 [2]: 4.96 | pIC50 [3]: 5.15

O=[N+]([O-])c1cccnc1Oc1ccc(OCc2ccc(F)cc2)cc1 [SEA0064]
Inhibitory activity relative to SEA0400, renal cortex-derived Na+/Ca2+ exchange activity ([1]; relative to SEA0400): about 0.07 fold

CCOc1ccc(Oc2ccc(OCc3cc(F)ccc3F)cc2)c(N)c1 [SEA0400, 2-[4-[(2,5-difluorophenyl)methoxy]phenoxy]-5-ethoxyaniline]
Kidney protective activity (effect on increase in urinary protein and albumin excretion) [4]: significantly inhibited the increase in urinary protein and albumin excretion | Amount of urinary albumin excretion ([4]; 4% NaCl chow, solvent group 109±14, Dahl-R 2±1): 58 ± 8 mg/day | Amount of urinary protein excretion ([4]; 4% NaCl chow, solvent group 144±11, Dahl-R 23±2): 91 ± 12 mg/day | pIC50 [1]: 7.70 | pIC50 [2]: 6.70 | pIC50 [3]: 7.05 | Amount of urinary albumin excretion (ZSF-1 rats; 1 mg/kg orally twice a day, 8 weeks (Group III), solvent group 28±5, lean 1±0.1): 20 ± 5 mg/day | Amount of urinary protein excretion (ZSF-1 rats; 1 mg/kg orally twice a day, 8 weeks (Group III), solvent group 58±9, lean 14±1): 40 ± 8 mg/day | Amount of urinary albumin excretion (ZSF-1 rats; 3 mg/kg orally twice a day, 8 weeks (Group IV), solvent group 28±5): 17 ± 5 mg/day | Amount of urinary protein excretion (ZSF-1 rats; 3 mg/kg orally twice a day, 8 weeks (Group IV), solvent group 58±9): 37 ± 7 mg/day | Amount of urinary albumin excretion (ZSF-1 rats; 10 mg/kg orally twice a day, 8 weeks (Group V), solvent group 28±5, significantly lower): 9 ± 2 mg/day | Amount of urinary protein excretion (ZSF-1 rats; 10 mg/kg orally twice a day, 8 weeks (Group V), solvent group 58±9, significantly lower): 29 ± 5 mg/day | Kidney protective activity (effect on increase in urinary protein and albumin excretion) (ZSF-1 rats; spontaneous diabetic rats (ZSF-1), orally twice a day, 8 weeks): significantly inhibited the increase in urinary protein and albumin excretion
